How the values were obtained:
hepatocellular carcinoma = test: Susceptibility assay in sorafenib-administered patients (tumor response according to RECIST); assay type: in vivo
Description: The term “patient having susceptibility to sorafenib treatment” refers to a hepatocellular carcinoma patient showing response according to the sorafenib administration (i.e., tumor response). […] N Engl J Med 359: 378-390.
In the samples derived from 23 sorafenib-administered patients, we analyzed the relationship between the 7 marker gene expression patterns and the sorafenib efficacies. From the hierarchical clustering analysis results of FIG. 5, clustering without primary classification according to BCLC stages was performed according to expression ratio (tumor/non-tumor) of the target molecules; and then the 23 sorafenib-administered patients (i to xxiii) were correspondingly arranged thereto (FIG. 6). […] N Engl J Med 359: 378-390.

advanced HCC = settings: HCC patients, stated as very low; cited from earlier work

CNC(=O)c1cc(Oc2ccc(NC(=O)Nc3ccc(Cl)c(C(F)(F)F)c3)cc2)ccn1 [sorafenib]
tumor response according to RECIST (hepatocellular carcinoma; patients viii, x, xi of the 23 sorafenib-administered HCC patients): partial response | susceptibility to the sorafenib treatment (RECIST tumor response) (hepatocellular carcinoma; remaining 20 of the 23 sorafenib-administered HCC patients): not susceptible | response rate of sorafenib (advanced HCC): about 3%

From patent US10017823B2, “Analytical method for increasing susceptibility of molecular targeted therapy in hepatocellular carcinoma” (CBS BIOSCIENCE, CO., LTD, priority 2013, dated 2018)
